Results published in paper PMC12481576, “Barbituric Acid Derivatives as Covalent Inhibitors of Leishmania braziliensis Dihydroorotate Dehydrogenase” (Journal of Medicinal Chemistry, 2025).
Converted amounts (≈) assume the structure as drawn. “And” between values parts separate entries of the source, which are not always exact repeats. Equal entries are not always repeated. Where two headings read alike, the source gives them in different places.

Assays:
[1] = Cell viability / cytotoxicity assay (PrestoBlue, 72 h); assay type: cell-based; details: human; THP-1 cell line, 72 h, max 200 μM; read-out: CC50
Procedure: (§1) THP-1 cells (American Type Cell Collection, #TIB-202) were acquired in 2019 and stored frozen in liquid nitrogen. The cells were then maintained in RPMI 1640 (Thermo Fisher Scientific, #S31800–022) at 37 °C in a 5% CO2 atmosphere and routinely tested for Mycoplasma contamination by PCR using the primers 5′-[…] and 5′-[…]. To test the toxicity of compounds, 5000 cells were added to 96-well plates with a final volume of 80 μL centrifuged at 400g for 2 min and incubated with 150 ng/mL of phorbol myristate acetate (Merck, #P8139) for 48 h. The medium was replaced, and after 24 h, the compounds were added and tested at decreasing concentrations starting from 200 μM (10 μL/well). After 72 h of incubation, 10 μL of PrestoBlue Cell Viability Reagent (Thermo Fisher Scientific, #A13262) was added per well. After adding the reagent, the cells were incubated for 2 h at 37 °C in a 5% CO2 atmosphere, and fluorescence readings were performed using the SpectraMax M3 reader (excitation at 560 nm and emission at 590 nm).

[2] = test system: THP-1 cells; test: as above; assay type: cell-based; details: THP-1 cell line, 72 h, max 200 μM
Procedure: as §1

[3] = target: T1, HsDHODH (Homo sapiens, UniProt Q02127); test: Selectivity assay: HsDHODH single-dose inhibition (DCIP reduction); assay type: biochemical
T1 construct: made in house
T1 sequence (Q02127 whole entry): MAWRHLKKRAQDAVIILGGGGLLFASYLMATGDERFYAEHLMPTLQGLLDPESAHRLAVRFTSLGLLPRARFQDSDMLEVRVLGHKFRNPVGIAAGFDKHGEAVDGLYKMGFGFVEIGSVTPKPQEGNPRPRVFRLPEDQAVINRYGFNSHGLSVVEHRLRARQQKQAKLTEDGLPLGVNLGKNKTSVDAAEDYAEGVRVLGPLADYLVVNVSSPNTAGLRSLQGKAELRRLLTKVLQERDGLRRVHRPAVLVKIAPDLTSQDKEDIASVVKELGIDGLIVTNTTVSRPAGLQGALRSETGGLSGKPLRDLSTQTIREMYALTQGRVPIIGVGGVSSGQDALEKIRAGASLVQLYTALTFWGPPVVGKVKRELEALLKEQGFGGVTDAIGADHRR
Procedure: […]. This finding highlights the potential of barbituric acid derivatives as selective inhibitors of LbDHODH.
Human DHODH expression and purification were conducted following a protocol previously established in our laboratory. The purification was carried out by affinity chromatography on a Ni-NTA Agarose column (Qiagen[…] Cat. No. 30210). […] The reaction was performed in triplicate, initiated by adding 195 μL of reaction buffer to 5 μL of HsDHODH protein solution for a final concentration of 20 nM enzyme. As a blank, 195 μL of reaction buffer was added to 5 μL of Buffer A. The reaction was monitored at 610 nm every 3 s over 60 s. As a control, 5 μL of enzyme was added to 195 μL of reaction medium without compound. Enzymatic velocity was calculated, and the percentage of relative enzymatic activity was determined relative to the control.

[4] = target: LbDHODH (Leishmania braziliensis, UniProt E9AI53); test: biochemical; details: for IC50: LbDHODH
LbDHODH, sequence (E9AI53 entry or part of it): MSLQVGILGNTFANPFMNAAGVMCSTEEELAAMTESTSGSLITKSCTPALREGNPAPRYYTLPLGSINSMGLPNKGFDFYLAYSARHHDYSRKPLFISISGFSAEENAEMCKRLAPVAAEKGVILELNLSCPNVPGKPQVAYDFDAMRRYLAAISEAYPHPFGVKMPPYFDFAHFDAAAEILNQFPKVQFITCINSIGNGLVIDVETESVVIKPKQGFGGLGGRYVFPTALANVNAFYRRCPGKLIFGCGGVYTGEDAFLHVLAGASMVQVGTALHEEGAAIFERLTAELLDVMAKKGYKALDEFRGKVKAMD
Procedure: To assess the ability of compounds 2a–2i to inhibit LbDHODH via covalent bond formation with Cys^131, we initially screened them at a concentration of 100 μM under two conditions: with and without a 4-h preincubation with the enzyme.
The experiments were performed in a 96-well microplate reader (SpectraMax Plus 384, Molecular Devices, USA), containing the […] of the buffer 60 mM DCIP, 50 mM Tris pH 8.15, 150 mM KCl, 0.1% Triton X-100, 50 μM DHO and 10 μM of LbDHODH at 165 nM. The reaction was monitored every 3 s at 610 nm over a period of 60 s, in triplicate, for the control and each concentration of the inhibitor. All assays were performed without incubation (0h) and with 4-h preincubation of the inhibitor with LbDHODH, using 5% DMSO (v/v) as control. […]. […] The resulting kobs values were plotted as a function of inhibitor concentration, and the data in the initial linear region was fit to determine the slope, which is kinact/KI. All regressions were performed with GraphPad Prism 9.

[5] = test system: Leishmania braziliensis promastigotes; test: Leishmanicidal activity, promastigote growth (SYBR Green, 72 h); assay type: cell-based, Leishmania (V.) braziliensis (MHOM/BR/1975/M2904); details: Leishmania braziliensis, L. braziliensis promastigotes, max 200 μM
Procedure: The cultures were adjusted to 4 × 10^6 parasites per mL, and 50 μL of each culture was added on a test plate with 384 wells (Corning, #CLS3658), along with the controls and compounds to be tested. Previously diluted compounds in DMSO were added to plates in decreasing concentrations, with a maximum concentration of 200 μM. Parasites were exposed to a final concentration of DMSO in various dilutes (final = 0.5%), and the culture medium was used as the control for the experiment. […] After adding the lysis buffer, the plates were incubated in the dark for 2 h with gentle shaking. The readings were done using a SpectraMax M3 reader (excitation at 485 nm and emission at 535 nm).

[6] = Kinetic solubility assay in PBS pH 7.4; assay type: physicochemical; details: PBS pH 7.4, 200 μM test conc, 1% DMSO, 2 h at 25 °C
Procedure: The plate was incubated for 2 h at 25 °C. The precipitates on the incubation plate were removed by filtration and the filtrates were quantified by LC-MS/MS. Calibration curves were prepared for each compound by using 5–6 points. Samples were analyzed by UV–vis.

[7] = for Raw data: analyte peak area, T=0: 0 min; for Raw data: analyte peak area, T=0 / Raw data: analyte peak area, T=5 / Raw data: analyte peak area, T=10 / Raw data: analyte peak area, T=20 / Raw data: analyte peak area, T=30 / Raw data: analyte peak area, T=60: raw LC-MS area; for Raw data: analyte peak area, T=5: 5 min; for Raw data: analyte peak area, T=10: 10 min; for Raw data: analyte peak area, T=20: 20 min; for Raw data: analyte peak area, T=30: 30 min; for Raw data: analyte peak area, T=60: 60 min
[8] = in vitro; details: liver microsomes; for microsomal CLint at 1 μM / remaining at 5 min, 1 μM: male, CD1, mouse; for remaining at 5 min, 1 μM / remaining at 10 min, 1 µM / remaining at 20 min, 1 µM / remaining at 0.5 h, 1 µM / remaining at 1 h, 1 µM: pH 7.4, % Remaining; for remaining at 5 min, 1 μM: T=5 min; for remaining at 10 min, 1 µM / remaining at 20 min, 1 µM / remaining at 0.5 h, 1 µM / remaining at 1 h, 1 µM: mouse; for remaining at 10 min, 1 µM: T=10 min; for remaining at 20 min, 1 µM: T=20 min; for remaining at 0.5 h, 1 µM: T=30 min, 30 min; for remaining at 1 h, 1 µM: T=60 min, 60 min
[9] = in vitro; details: mouse, microsomes, pH 7.4, % Remaining, T=60 NCF
[10] = Mouse liver microsome stability in the absence of cofactors (NCF); details: mouse liver microsomes, 60 min, no cofactor (NCF), raw LC-MS area
[11] = read-out: Single dose (0h) % activity
[12] = read-out: Single dose (4h) % activity
[13] = 0 h, pH 8.15, read-out: LbDHODH Activity±SD (%)
[14] = 4 h, pH 8.15, read-out: LbDHODH Activity±SD (%)
[15] = phosphate buffered saline, aqueous buffer, kinetic from dmso stock
[16] = mouse liver microsomes, replicate 1 (left block)
[17] = mouse liver microsomes, replicate 2 (right block)
[18] = n=1, mouse liver microsomes, 1 µM, n=1
[19] = n=2, mouse liver microsomes, 1 µM, n=2

Structure (SMILES): O=C1NC(=O)C(=Cc2ccc(-c3ccccc3)cc2)C(=O)N1 [2f, 5-([1,1′-Biphenyl]-4-ylmethylene)pyrimidine-2,4,6(1H,3H,5H)-trione]
- CC50 at 72 h [1]: 12 ± 3 µM
- CC50 [2]: strong cytotoxicity
- activity at 100 µM [3, 11]: 103 ± 12%
- activity at 100 µM [3, 12]: 78 ± 8%
- activity at 0.024414 µM [4, 13]: 97 ± 2%
- activity at 0.048828 µM [4, 13]: 93 ± 2%
- activity at 0.0976562 µM [4, 13]: 98 ± 2%
- activity at 0.195312 µM [4, 13]: 97 ± 2%
- activity at 0.390625 µM [4, 13]: 91 ± 2%
- activity at 0.78125 µM [4, 13]: 94 ± 2%
- activity at 1.5625 µM [4, 13]: 100 ± 2%
- activity at 3.125 µM [4, 13]: 94 ± 2%
- activity at 6.25 µM [4, 13]: 96 ± 2%
- activity at 12.5 µM [4, 13]: 86 ± 2%
- activity at 25 µM [4, 13]: 83 ± 2%
- activity at 50 µM [4, 13]: 71 ± 2%
- activity at 100 µM [4, 13]: 62 ± 2%
- activity at 200 µM [4, 13]: 43 ± 1%
- activity at 0.024414 µM [4, 14]: 103 ± 3%
- activity at 0.048828 µM [4, 14]: 104 ± 3%
- activity at 0.0976562 µM [4, 14]: 104 ± 3%
- activity at 0.195312 µM [4, 14]: 95.5 ± 2%
- activity at 0.390625 µM [4, 14]: 95.9 ± 2%
- activity at 0.78125 µM [4, 14]: 85.6 ± 2%
- activity at 1.5625 µM [4, 14]: 83.3 ± 2%
- activity at 3.125 µM [4, 14]: 73.6 ± 2%
- activity at 6.25 µM [4, 14]: 53 ± 1%
- activity at 12.5 µM [4, 14]: 41 ± 1%
- activity at 25 µM [4, 14]: 25.2 ± 0.6%
- activity at 50 µM [4, 14]: 10 ± 0.2%
- activity at 100 µM [4, 14]: 3.8 ± 0.1%
- activity at 200 µM [4, 14]: 0.95 ± 0.02%
- IC50 ([4]; IC50 0 h, without preincubation): 160 ± 10 µM
- IC50 ([4]; IC50 4 h, 4-h preincubation): 7.7 ± 0.3 µM
- activity at 100 µM [4, 11]: 62 ± 2%
- activity at 100 µM [4, 12]: 3.8 ± 0.1%
- inhibition at 100 µM ([4]; read-out: enzyme inhibition): 96.2%
- EC50 [5]: 19 ± 14 µM

Structure (SMILES): O=C(O)Cc1ccccc1Nc1c(Cl)cccc1Cl [Diclofenac Sodium, reference compound]
- solubility kinetic at 2 h [6, 15]: 200 µM

Structure (SMILES): O=C(O)Cc1ccccc1Nc1c(Cl)cccc1Cl [Diclofenac]
- Calculated T-half (min), Average ([7]; mouse liver microsomes (CD1 male), 0.4 mg/ml protein, test conc 1 µM, average of n=1 and n=2): 59.3 min
- Calculated T-half (min), n=1 ([7]; mouse liver microsomes (CD1 male), 0.4 mg/ml protein, test conc 1 µM, replicate n=1): 62.0 min and 61.99 min
- Calculated T-half (min), n=2 ([7]; mouse liver microsomes (CD1 male), 0.4 mg/ml protein, test conc 1 µM, replicate n=2): 56.6 min and 56.57 min
- Raw data: analyte peak area, T=0 [7, 16]: 17523
- Raw data: analyte peak area, T=0 [7, 17]: 19401
- Calculated CLint, app (µl/min/mg), n=1 ([7]; mouse liver microsomes, 0.4 mg/ml protein, 1 µM, replicate n=1): 27.95 µL/min/mg
- Calculated CLint, app (µl/min/mg), n=2 ([7]; mouse liver microsomes, 0.4 mg/ml protein, 1 µM, replicate n=2): 30.63 µL/min/mg
- Modified T-half (min), Average ([7]; mouse liver microsomes, 0.4 mg/ml, 1 µM, average, limited to T Half range 3.00 - […]): 59.3 min
- Raw data: analyte peak area, T=5 [7, 16]: 17080
- Raw data: analyte peak area, T=5 [7, 17]: 16757
- Raw data: analyte peak area, T=10 [7, 16]: 15901
- Raw data: analyte peak area, T=10 [7, 17]: 17016
- Raw data: analyte peak area, T=20 [7, 16]: 13027
- Raw data: analyte peak area, T=20 [7, 17]: 13336
- Raw data: analyte peak area, T=30 [7, 16]: 11583
- Raw data: analyte peak area, T=30 [7, 17]: 11936
- Raw data: analyte peak area, T=60 [7, 16]: 10413
- Raw data: analyte peak area, T=60 [7, 17]: 8808
- microsomal CLint at 1 μM ([8]; pH 7.4): 27.9 µL/min/mg
- remaining at 5 min, 1 μM [8, 18]: 94%
- remaining at 5 min, 1 μM [8, 19]: 89.2%
- microsomal CLint at 1 μM ([8]; pH 7.4, Calculated CLint, app (µl/min/mg), Average, mouse liver microsomes, 0.4 mg/ml protein, 1 µM): 29.3 µL/min/mg
- microsomal CLint at 1 μM ([8]; pH 7.4, Calculated CLint, app (µl/min/mg), n=1, mouse liver microsomes, 0.4 mg/ml protein, 1 µM, replicate n=1): 27.9 µL/min/mg
- microsomal CLint at 1 μM ([8]; pH 7.4, Calculated CLint, app (µl/min/mg), n=2, mouse liver microsomes, 0.4 mg/ml protein, 1 µM, replicate n=2): 30.6 µL/min/mg
- remaining at 10 min, 1 µM [8, 18]: 86.6%
- remaining at 10 min, 1 µM [8, 19]: 87%
- remaining at 20 min, 1 µM [8, 18]: 79.5%
- remaining at 20 min, 1 µM [8, 19]: 79%
- remaining at 0.5 h, 1 µM [8, 18]: 62%
- remaining at 0.5 h, 1 µM [8, 19]: 63%
- remaining at 1 h, 1 µM [8, 18]: 52.3%
- remaining at 1 h, 1 µM [8, 19]: 47.8%
- remaining at 1 h, 1 µM ([9]; n=1): 98.3%
- remaining at 1 h, 1 µM ([9]; n=2): 88.5%
- Raw data: analyte peak area, T=60 NCF ([10]; replicate 1 (left block)): 17862
- Raw data: analyte peak area, T=60 NCF ([10]; replicate 2 (right block)): 19654

Structure (SMILES): CC/C(=C(/CC)c1ccc(O)cc1)c1ccc(O)cc1 [Diethylstilbesterol, reference compound]
- solubility kinetic at 2 h [6]: 9.98 µM (≈ 2.68 µg/mL)

Structure (SMILES): O=C(CCCN1CCC(O)(c2ccc(Cl)cc2)CC1)c1ccc(F)cc1 [Haloperidol, reference compound]
- solubility kinetic at 2 h [6, 15]: 30.3 µM (≈ 11.4 µg/mL)
